In one data set the test system is Hartley Guinea pigs. Nature of the data set: Cough model: inhibition of citric acid induced cough in guinea pig. Particulars: intraperitoneally 30 min before nebulization of citric acid 0.4 M, compared with vehicle (Fig. 3). The class given is in vivo. As to the method:
(§1) C57BL/6J mice, Hartley Guinea pigs and Sprague-Dawley Rats from Charles River Italy were used in the experiments. Animals were housed with free access to food and water and maintained on a forced 12 hr light-dark cycle at 22-24°C for at least one week before the experiments were carried out. The animals were handled according to internationally accepted principles for care of laboratory animals (Directive 2010/63/EU of the European Parliament and of the Council of 22 September 2010).
"Cough model" - Inhibition of citric acid induced cough in guinea pig
Conscious guinea pigs were placed in the transparent chamber of the whole-body plethysmograph (EMKA) and allowed to move freely. The number of coughs was registered by the IOX2 software for 10 minutes during and 10 minutes after the nebulization of citric acid 0.4 M. Example 22 was injected intraperitoneally 30 min before the nebulization of citric acid. (see Fig. 3) In cough model the results are presented as mean ± SEM of the values. Statistical analysis was performed using one-way ANOVA and Dunnet's test for multiple comparisons.

Another data set relates to Sprague-Dawley Rats. Kind of data set: Two bottle taste test in rats: dysgeusia effect of P2X3 antagonists. The class given is in vivo. The note with it: rats water fasted overnight; bottles presented 30 minutes after treatment for 15 minutes (Fig. 4). As to the method:
as §1
(Fig 3) "Two bottle taste test" in rats - Dysgeusia effect of P2X3 antagonists
Rats were water fasted overnight. The day of the experiment the animals were treated with tested compounds and 30 minutes later two bottles were presented for 15 minutes, the first one containing water and the second bottle containing Quinine, a substance showing a bitter taste. The volume of liquid drunk in 15 minutes from each bottle was recorded and expressed as percentage of preference (Fig.4). Statistical analysis was performed on absolute values (mean ± SEM) using one-way ANOVA and Tukey's test for multiple comparisons.

The target in another data set is T1, human P2X2/3 receptor (Homo sapiens, UniProt P56373+Q9UBL9).
T1 construct: expressed in transfected cells; host or cells: CHO-K1
T1 sequence (P56373 1-397): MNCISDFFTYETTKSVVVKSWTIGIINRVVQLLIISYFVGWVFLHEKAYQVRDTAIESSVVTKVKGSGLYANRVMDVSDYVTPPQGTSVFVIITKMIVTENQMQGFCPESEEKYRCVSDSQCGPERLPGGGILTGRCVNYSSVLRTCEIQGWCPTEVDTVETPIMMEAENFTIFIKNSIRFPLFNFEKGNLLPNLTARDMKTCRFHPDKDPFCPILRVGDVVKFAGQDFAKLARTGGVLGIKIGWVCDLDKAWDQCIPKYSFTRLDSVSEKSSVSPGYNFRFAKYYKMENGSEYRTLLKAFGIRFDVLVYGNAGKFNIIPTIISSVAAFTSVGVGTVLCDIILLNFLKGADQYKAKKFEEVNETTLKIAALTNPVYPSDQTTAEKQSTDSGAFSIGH
T1 sequence (Q9UBL9 1-471): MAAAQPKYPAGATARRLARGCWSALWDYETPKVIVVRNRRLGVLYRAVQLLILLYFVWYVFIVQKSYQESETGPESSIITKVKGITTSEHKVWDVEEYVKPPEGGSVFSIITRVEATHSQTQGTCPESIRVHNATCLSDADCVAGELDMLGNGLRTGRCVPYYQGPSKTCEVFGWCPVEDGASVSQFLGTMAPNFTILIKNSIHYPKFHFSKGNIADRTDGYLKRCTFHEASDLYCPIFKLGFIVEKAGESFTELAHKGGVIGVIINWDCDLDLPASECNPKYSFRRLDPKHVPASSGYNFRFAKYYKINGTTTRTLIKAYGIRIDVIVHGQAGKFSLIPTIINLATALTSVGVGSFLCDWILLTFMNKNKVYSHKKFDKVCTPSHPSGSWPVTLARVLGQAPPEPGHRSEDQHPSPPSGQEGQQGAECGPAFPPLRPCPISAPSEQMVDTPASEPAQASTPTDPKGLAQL
Kind of data set: Calcium fluorescence measurement: human P2X2/3 receptor activity inhibition (CHO-K1 cells, Fluo-8 NoWash, […]). The class given is cell-based.

The test system of a further data set is C57BL/6J mice. Kind of data set: Scratching model: inhibition of ATP induced pruritus in mouse. The class given is in vivo. As to the method: as §1
"Scratchng model" - Inhibition of ATP induced pruritus in mouse
Mice were shaved at the rostral back the day before injection. The day of the experiment, an intradermal injection of the irritant agent α,β-meATP 200 µg/50 µL (Sigma, Italy) into the skin was performed. The hind limb scratching behavior directed toward the injection site, was recorded. One bout was defined as the lifting of the hindlimb toward the injection site and then placing the limb back on the floor. The number of bouts were counted for a period of 30 minutes. The Example 22 compound investigated was injected intraperitoneally 30 min before the administration of the irritant agent. (Fig. 2)
In the scratching model the results are presented as mean ± SEM of the values. Statistical analysis was performed using one-way ANOVA and Dunnet's test for multiple comparisons. The ED35 of the tested compounds was determined by linear regression analysis of bouts (Graphpad v5).

This note sets out measurements from EP4389746A2, “P2X3 RECEPTOR ANTAGONISTS” (Recordati Industria Chimica E Farmaceutica SPA, priority 2022, dated 2024).

Take `CC(C)C1C(=O)N=C2c3ncc(N4CCOCC4)cc3N(Cc3ccc(Cl)cc3)C(=O)N21` (racemic) [Example 22, 6-[(4-Chlorophenyl)methyl]-8-(morpholin-4-yl)-3-(propan-2-yl)imidazo[1,2-c]pyrido[2,3-e]pyrimidine-2,5(3H,6H)-dione]: the number of coughs result in the data set on Hartley Guinea pigs is “significantly reduced the number of coughs both during and after the nebulization of citric acid”. The “preference between water and Quinine” value in the data set on Sprague-Dawley Rats is reported as “showed a clear preference for water in comparison to Quinine”. At human P2X2/3 receptor (CHO-K1 cells expressing human P2RX2/X3 channel, 10µM α,β-Met-ATP, read-out: h-P2X2/3 IC50), the IC50 turned out to be 18.8 µM. Also, on human P2X2/3 receptor (ratio of IC50 of P2X2/3/ P2X3 receptors), the Selectivity was 510. The “ED35” value with C57BL/6J mice (dose inhibiting the 35% of number of bouts, intraperitoneally 30 min before α,β-meATP 200 µg/50 µL intradermal, bouts counted for 30 minutes) was found to be 10.62 mg/kg. The number of bouts entry in the data set with C57BL/6J mice (intraperitoneally 30 min before α,β-meATP, vs vehicle group (Fig. 2)) was “reduce the number of bouts significantly and in a dose-related manner”.
